In patent US8450300B2 (priority 2009, dated 2013):
Like-named read-outs stand apart in the source and are kept apart here.

Tests used:
WT isolates [1] = assay: Synergy by the checkerboard method; format: cell-based; settings: FA/co-drug combination, count
Experimental: (§1) CLSI broth microdilution (BMD) and anaerobic agar dilution (AD) methods were performed. Modifications of standard test methods included adding 10% human serum, adjusting the medium pH to 5, 6, and 8, and synergy was assessed by the checkerboard method.

S. aureus [2] = assay: Reference broth microdilution susceptibility testing (CLSI M07-A8), Canadian isolates; format: cell-based; settings: for R rate: overall S. aureus population; for number of isolates inhibited: Staphylococcus aureus
Text: Methods: To determine a contemporary susceptibility (S) spectrum pattern, 153 GP isolates (123 S. aureus, 15 coagulase-negative staphylococci [CoNS] and 15 S. pyogenes [SPYO]) were collected from 5 Canadian medical centers between 2001 and 2006.

[3] = test system: 217 S. aureus Canadian isolates; format: cell-based; settings: Canadian S. aureus isolates, comparators
Experimental: as §1

S. aureus [4] = assay: MIC of S. aureus in humans (description); format: cell-based; settings: Staphylococcus aureus
GN species = assay: CLSI MIC, spectrum study; format: cell-based; settings: all GN except E. brevis, M. catarrhalis, N. meningitidis
Experimental: as §1

[5] = test system: E. brevis, M. catarrhalis and N. meningitidis; assay: CLSI MIC, spectrum study; format: cell-based
Experimental: as §1

WT isolates [6] = assay: Single-step mutational rates to resistance; format: cell-based
[7] = test system: methicillin-resistant S. aureus (MRSA) strain USA 300; assay: Hollow fiber pharmacodynamic model, resistance potential; format: cell-based; settings: 600 mg q12h
Experimental: A hollow fiber model was used to evaluate CEM-102 resistance potential in methicillin-resistant S. aureus (MRSA) strain USA 300 (Network of Antimicrobial Resistance in Staphylococcus aureus (NARSA), Chantilly, Va.). USA 300 is a highly virulent strain of MRSA and is the most common community-associated MRSA isolate in the USA. MIC values were determined in accordance with Clinical and Laboratory Standards Institute (CLSI).
The hollow fiber model comprised a two-compartment hollow fiber model (Louie et al. Antimicrob Agents Chemother 52:2486-2496(2008)) consisting of a volume of 15 mL in the central compartment, with multiple ports for the removal of broth, delivery of antibiotics, and collection of bacterial and antimicrobial samples. […] All experiments were performed in duplicate.
Hollow fibers contain 15 ml of media was prepared and inoculated with 10^6 colony forming units (CFU)/mL USA 300 bacteria. One of three different dosing regimens of […] was then applied to the fibers: (1) […] q12h; (2) 1200 mg/ml×2, followed by […], q12h; (3) 1500 mg/ml×2, followed by […], q12h.

[8] = cited from earlier work
WT isolates [9] = assay: MIC with 10% human serum or adjusted medium pH; format: cell-based
Experimental: as §1

[10] = test system: Gram-positive (GP) species; assay: CLSI broth microdilution / anaerobic agar dilution MIC, spectrum study; format: cell-based; settings: all GP isolates
Experimental: as §1

CN[C@H](CC(C)C)C(=O)N[C@H]1C(=O)N[C@@H](CC(N)=O)C(=O)N[C@H]2C(=O)N[C@H]3C(=O)N[C@H](C(=O)N[C@H](C(=O)O)c4cc(O)cc(O)c4-c4cc3ccc4O)[C@H](O)c3ccc(c(Cl)c3)Oc3cc2cc(c3O[C@@H]2O[C@H](CO)[C@@H](O)[C@H](O)[C@H]2O[C@H]2C[C@](C)(N)[C@H](O)[C@H](C)O2)Oc2ccc(cc2Cl)[C@H]1O [Vancomycin]
Additive (WT isolates [1]): 2 | Antagonism (WT isolates [1]): 0 | Indeterminate (WT isolates [1]): 0 | Indifferent (WT isolates [1]): 4 | Synergy: Complete (WT isolates [1]): 0 | Synergy: Partial (WT isolates [1]): 0

C[C@H]1COc2c(N3CCN(C)CC3)c(F)cc3c(=O)c(C(=O)O)cn1c23 [levofloxacin]
Additive (WT isolates [1]): 0 | Antagonism (WT isolates [1]): 0 | Indeterminate (WT isolates [1]): 2 | Indifferent (WT isolates [1]): 4 | Synergy: Complete (WT isolates [1]): 0 | Synergy: Partial (WT isolates [1]): 0

Cc1onc(-c2ccccc2)c1C(=O)N[C@@H]1C(=O)N2[C@@H]1SC(C)(C)[C@@H]2C(=O)O [Oxacillin]
Additive (WT isolates [1]): 1 | Antagonism (WT isolates [1]): 0 | Indeterminate (WT isolates [1]): 1 | Indifferent (WT isolates [1]): 3 | Synergy: Complete (WT isolates [1]): 0 | Synergy: Partial (WT isolates [1]): 1

gentamicin
Additive (WT isolates [1]): 3 | Antagonism (WT isolates [1]): 0 | Indeterminate (WT isolates [1]): 0 | Indifferent (WT isolates [1]): 1 | Synergy: Complete (WT isolates [1]): 1 | Synergy: Partial (WT isolates [1]): 1

CC[C@H]1OC(=O)[C@H](C)[C@@H](O[C@H]2C[C@@](C)(OC)[C@@H](O)[C@H](C)O2)[C@H](C)[C@@H](O[C@@H]2O[C@H](C)C[C@H](N(C)C)[C@H]2O)[C@](C)(O)C[C@@H](C)C(=O)[C@H](C)[C@@H](O)[C@]1(C)O [erythromycin]
R rate (S. aureus [2]): 52.0% | resistance rates [3]: 52.1%

CO[C@H]1/C=C/O[C@@]2(C)Oc3c(C)c(O)c4c(O)c(c(/C=N/N5CCN(C)CC5)c(O)c4c3C2=O)NC(=O)/C(C)=C\C=C\[C@H](C)[C@H](O)[C@@H](C)[C@@H](O)[C@@H](C)[C@H](OC(C)=O)[C@@H]1C [Rifampin, rifampin]
Additive (WT isolates [1]): 1 | Antagonism (WT isolates [1]): 0 | Indeterminate (WT isolates [1]): 0 | Indifferent (WT isolates [1]): 0 | Synergy: Complete (WT isolates [1]): 0 | Synergy: Partial (WT isolates [1]): 5

CC(=O)O[C@H]1C[C@@]2(C)[C@@H](C[C@@H](O)[C@H]3[C@@]4(C)CC[C@@H](O)[C@@H](C)[C@@H]4CC[C@@]32C)/C1=C(\CCC=C(C)C)C(=O)O [FA, Fusidic acid]
number of isolates inhibited (S. aureus [2]; years tested 2001-2002, read-out: No. inhibited at MIC (μg/mL) of: 0.06): 8 µg/mL | number of isolates inhibited (S. aureus [2]; years tested 2001-2002, read-out: No. inhibited at MIC (μg/mL) of: 0.12): 29 µg/mL | number of isolates inhibited (S. aureus [2]; years tested 2001-2002, read-out: No. inhibited at MIC (μg/mL) of: 0.25): 1 µg/mL | number of isolates inhibited (S. aureus [2]; years tested 2001-2002, read-out: No. inhibited at MIC (μg/mL) of: ≧2): 2 µg/mL | number of isolates inhibited (S. aureus [2]; years tested 2003-2004, read-out: No. inhibited at MIC (μg/mL) of: 0.06): 6 µg/mL | number of isolates inhibited (S. aureus [2]; years tested 2003-2004, read-out: No. inhibited at MIC (μg/mL) of: 0.12): 33 µg/mL | number of isolates inhibited (S. aureus [2]; years tested 2003-2004, read-out: No. inhibited at MIC (μg/mL) of: ≧2): 3 µg/mL | number of isolates inhibited (S. aureus [2]; years tested 2005-2006, read-out: No. inhibited at MIC (μg/mL) of: 0.06): 2 µg/mL | number of isolates inhibited (S. aureus [2]; years tested 2005-2006, read-out: No. inhibited at MIC (μg/mL) of: 0.12): 32 µg/mL | number of isolates inhibited (S. aureus [2]; years tested 2005-2006, read-out: No. inhibited at MIC (μg/mL) of: 0.25): 2 µg/mL | number of isolates inhibited (S. aureus [2]; years tested 2005-2006, read-out: No. inhibited at MIC (μg/mL) of: ≧2): 5 µg/mL | MIC (S. aureus [4]): 2.5 µg/mL | MIC (GN species): ≥ 2 µg/mL | MIC [5]: 0.12 to 0.5 µg/mL | single-step mutational rate (WT isolates [6]; 4×MIC): 1.2×10^−6 | single-step mutational rate (WT isolates [6]; 16×MIC): 9.8×10^−8 | outcome in hollow fiber model [7]: regrowth and development of resistance by 24 h and 48 h | protein binding [8]: 95-97% | increase in MIC results (WT isolates [9]; 10% serum added): 4 fold | effect of lower media pH on protein binding effects (WT isolates [9]; medium pH 5.0-6.0): decreased negative protein binding effects | MIC values, range [10]: 0.06 to 32 µg/mL

CCC[C@@H]1C[C@@H](C(=O)N[C@@H]([C@H]2O[C@H](SC)[C@H](O)[C@@H](O)[C@H]2O)[C@H](C)Cl)N(C)C1 [clindamycin]
R rate (S. aureus [2]): 28.5% | resistance rates [3]: 30.9%
